According to the NIST ThermoML archive (doi:10.1021/je400486p):

Experiment: refractive index (Na D-line) (dimensionless); xn = mol fraction of the nth substance listed
Conditions: 101.3 kPa, Liquid, Standard Abbe refractometry

COCCOCCOCCOCCOC [2,5,8,11,14-pentaoxapentadecane] + CCC(C)O
refractive index
Conditions	x2 = 0	x2 = 0.1007	x2 = 0.2003	x2 = 0.3015	x2 = 0.3991	x2 = 0.5011	x2 = 0.6024	x2 = 0.6997	x2 = 0.7998	x2 = 0.9004
288.15 K	1.4345	1.43266	1.43063	1.42851	1.42627	1.42333	1.41994	1.41632	1.41171	1.40624
293.15 K	1.43238	1.43054	1.42851	1.42637	1.42412	1.42118	1.41778	1.41418	1.4096	1.40412
298.15 K	1.43027	1.42843	1.42637	1.42424	1.42197	1.41902	1.41562	1.41202	1.40743	1.40197
303.15 K	1.42815	1.42631	1.42424	1.4221	1.41983	1.41687	1.41347	1.40983	1.40522	1.39977
308.15 K	1.42603	1.4242	1.42212	1.41998	1.41768	1.41473	1.41133	1.40765	1.40302	1.39751
313.15 K	1.42394	1.42209	1.42001	1.41785	1.4155	1.41255	1.40915	1.40543	1.40077	1.39524
318.15 K	1.42183	1.42003	1.4179	1.41571	1.41339	1.41039	1.40698	1.40327	1.39857	1.393
323.15 K	1.41973	1.41794	1.4158	1.4136	1.41127	1.40823	1.40477	1.40104	1.39628	1.39067

CN1CCCC1=O [N-methylpyrrolidone] + CCC(C)O
refractive index
Conditions	x2 = 0	x2 = 0.1049	x2 = 0.2001	x2 = 0.3009	x2 = 0.4019	x2 = 0.5003	x2 = 0.5995	x2 = 0.7004	x2 = 0.7985	x2 = 0.899
288.15 K	1.47166	1.46489	1.45851	1.45151	1.44431	1.43715	1.42982	1.42227	1.41487	1.40724
293.15 K	1.46952	1.46273	1.45634	1.44937	1.44219	1.43504	1.42772	1.42016	1.41275	1.40512
298.15 K	1.46736	1.46061	1.45418	1.4473	1.44013	1.43298	1.42564	1.41806	1.41063	1.40302
303.15 K	1.4652	1.45844	1.45203	1.44515	1.43799	1.43083	1.42349	1.41587	1.40842	1.40081
308.15 K	1.46306	1.45632	1.44987	1.44301	1.43583	1.42867	1.42131	1.41372	1.40626	1.39861
313.15 K	1.46095	1.45416	1.44773	1.44083	1.43366	1.42651	1.41919	1.41155	1.40406	1.39638
318.15 K	1.45891	1.45204	1.44559	1.43868	1.43152	1.42436	1.41701	1.40934	1.40181	1.39408
323.15 K	1.4568	1.44996	1.4435	1.43654	1.42934	1.42215	1.41481	1.40711	1.39955	1.39172
